# Results: patent US11976061B2, “Preparation of benzimidazolone derivatives as novel diacylglyceride O-acyltransferase 2 inhibitors” (Merck Sharp & Dohme LLC, priority 2020, dated 2024)
# pIC50: −log10 of the molar value.
# Biological target: T1, human DGAT2 (hDGAT2) (Homo sapiens, UniProt Q96PD7)
# T1 construct: made in house; host or cells: Sf-9 insect cells (baculovirus), membrane fraction
# T1 sequence (Q96PD7 1-388): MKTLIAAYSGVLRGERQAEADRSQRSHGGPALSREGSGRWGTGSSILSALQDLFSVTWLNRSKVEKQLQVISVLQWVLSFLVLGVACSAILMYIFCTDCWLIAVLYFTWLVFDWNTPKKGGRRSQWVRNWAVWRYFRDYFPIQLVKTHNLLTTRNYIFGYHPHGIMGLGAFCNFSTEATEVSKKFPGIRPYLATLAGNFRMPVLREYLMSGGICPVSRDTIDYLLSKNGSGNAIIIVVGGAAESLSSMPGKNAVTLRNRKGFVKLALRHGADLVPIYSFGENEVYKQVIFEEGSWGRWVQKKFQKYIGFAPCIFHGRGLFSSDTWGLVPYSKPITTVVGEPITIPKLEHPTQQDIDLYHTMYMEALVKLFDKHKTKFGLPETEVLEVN
# Experiment: DGAT2 Enzymatic Activity Assay
# Format: biochemical
# Details: membrane prep of Sf-9 cells expressing hDGAT2; 25 μM diolein, 5 μM 13C oleoyl-CoA; 13C18-triolein by LC/MS/MS; read-out: DGAT2 IC50
# Procedure, shortened: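 Membranes from Sf-9 cells expressing untagged human DGAT2 (8 ng/μL) incubated at rt in 100 mM Tris·Cl pH 7.0, 20 mM MgCl2, 5% ethanol with 25 μM diolein and 5 μM 13C oleoyl-CoA. 13C18-triolein product quantified by LC/MS/MS against 13C21-triolein internal standard; IC50 by 4-parameter fit.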
row,SMILES,pIC50
1,"CCn1c(=O)n(-c2cccc(OC(F)F)c2)c2ccc(C(=O)NC3(C)CS(=O)(=O)C3)cc21 [Example 40, 1-(3-(Difluoromethoxy)phenyl)-3-ethyl-N-(3-methyl-1,1-dioxidothietan-3-yl)-2-oxo-2,3-dihydro-1H-benzo[d]imidazole-5-carboxamide]",6.71
2,"CC1(NC(=O)c2ccc3c(c2)n(C2CC2)c(=O)n3-c2cccc(OC(F)F)c2)CCS(=O)(=O)CC1 [Example 41, 3-Cyclopropyl-1-(3-(difluoromethoxy)phenyl)-N-(4-methyl-1,1-dioxidotetrahydro-2H-thiopyran-4-yl)-2-oxo-2,3-dihydro-1H-benzo[d]imidazole-5-carboxamide]",6.67
3,"CC1(NC(=O)c2ccc3c(c2)n(CCC(F)(F)F)c(=O)n3-c2cccc(OC(F)F)c2)CCS(=O)(=O)CC1 [Example 42, 1-(3-(Difluoromethoxy)phenyl)-N-(4-methyl-1,1-dioxidotetrahydro-2H-thiopyran-4-yl)-2-oxo-3-(3,3,3-trifluoropropyl)-2,3-dihydro-1H-benzo[d]imidazole-5-carboxamide]",6.39
4,"CC1(NC(=O)c2ccc3c(c2)n(CC(F)(F)F)c(=O)n3-c2cccc(OC(F)F)c2)CS(=O)(=O)C1 [Example 43, 1-(3-(Difluoromethoxy)phenyl)-N-(3-methyl-1,1-dioxidothietan-3-yl)-2-oxo-3-(2,2,2-trifluoroethyl)-2,3-dihydro-1H-benzo[d]imidazole-5-carboxamide]",6.69
5,"CC1(NC(=O)c2ccc3c(c2)n(CC(F)(F)F)c(=O)n3-c2cccc(OC(F)F)c2)CCS(=O)(=O)CC1 [Example 44, 1-(3-(difluoromethoxy)phenyl)-N-(4-methyl-1,1-dioxidotetrahydro-2H-thiopyran-4-yl)-2-oxo-3-(2,2,2-trifluoroethyl)-2,3-dihydro-1H-benzo[d]imidazole-5-carboxamide]",7.06
6,"CC(=O)Nc1ccc(-n2c(=O)n(C(C)C)c3cc(C(=O)NC4(C)CS(=O)(=O)C4)ccc32)cc1O [Example 47, 1-(4-acetamido-3-hydroxyphenyl)-3-isopropyl-N-(3-methyl-1,1-dioxidothietan-3-yl)-2-oxo-2,3-dihydro-1H-benzo[d]imidazole-5-carboxamide]",< 5.00
7,"Cc1nc2c(-n3c(=O)n(C(C)C)c4cc(C(=O)NC5(C)CS(=O)(=O)C5)ccc43)cccc2o1 [Example 48, 3-isopropyl-N-(3-methyl-1,1-dioxidothietan-3-yl)-1-(2-methylbenzo[d]oxazol-4-yl)-2-oxo-2,3-dihydro-1H-benzo[d]imidazole-5-carboxamide]",< 5.00
8,"Cc1nc2ccc(-n3c(=O)n(C(C)C)c4cc(C(=O)NC5(C)CS(=O)(=O)C5)ccc43)cc2o1 [Example 49, 3-isopropyl-N-(3-methyl-1,1-dioxidothietan-3-yl)-1-(2-methylbenzo[d]oxazol-6-yl)-2-oxo-2,3-dihydro-1H-benzo[d]imidazole-5-carboxamide]",< 5.00
9,"CC(C)n1c(=O)n(-c2cccc(F)c2)c2ccc(C(=O)NC3(C)CCS(=O)(=O)CC3)cc21 [Example 50, 1-(3-fluorophenyl)-3-isopropyl-N-(4-methyl-1,1-dioxidotetrahydro-2H-thiopyran-4-yl)-2-oxo-2,3-dihydro-1H-benzo[d]imidazole-5-carboxamide]",< 5.00
10,"CC(C)Oc1cc(-n2c(=O)n(C(C)C)c3cc(C(=O)NC4(C)CCS(=O)(=O)CC4)ccc32)c(F)cn1 [Example 51, 1-(5-fluoro-2-isopropoxypyridin-4-yl)-3-isopropyl-N-(4-methyl-1,1-dioxidotetrahydro-2H-thiopyran-4-yl)-2-oxo-2,3-dihydro-1H-benzo[d]imidazole-5-carboxamide]",6.60
11,"CC(C)n1c(=O)n(-c2cccc(C#N)c2)c2ccc(C(=O)NC3(C)CCS(=O)(=O)CC3)cc21 [Example 52, 1-(3-cyanophenyl)-3-isopropyl-N-(4-methyl-1,1-dioxidotetrahydro-2H-thiopyran-4-yl)-2-oxo-2,3-dihydro-1H-benzo[d]imidazole-5-carboxamide]",< 5.00
12,"CC(C)n1c(=O)n(-c2cccc(C(F)(F)F)c2)c2ccc(C(=O)NC3(C)CCS(=O)(=O)CC3)cc21 [Example 53, 3-isopropyl-N-(4-methyl-1,1-dioxidotetrahydro-2H-thiopyran-4-yl)-2-oxo-1-(3-(trifluoromethyl)phenyl)-2,3-dihydro-1H-benzo[d]imidazole-5-carboxamide]",5.74
13,"CC(C)n1c(=O)n(-c2cccc(N(C)C)c2)c2ccc(C(=O)NC3(C)CCS(=O)(=O)CC3)cc21 [Example 54, 1-(3-(dimethylamino)phenyl)-3-isopropyl-N-(4-methyl-1,1-dioxidotetrahydro-2H-thiopyran-4-yl)-2-oxo-2,3-dihydro-1H-benzo[d]imidazole-5-carboxamide]",5.88
14,"CC(C)n1c(=O)n(-c2cccc(C(N)=O)c2)c2ccc(C(=O)NC3(C)CCS(=O)(=O)CC3)cc21 [Example 55, 1-(3-carbamoylphenyl)-3-isopropyl-N-(4-methyl-1,1-dioxidotetrahydro-2H-thiopyran-4-yl)-2-oxo-2,3-dihydro-1H-benzo[d]imidazole-5-carboxamide]",< 5.00
15,"CSc1cccc(-n2c(=O)n(C(C)C)c3cc(C(=O)NC4(C)CCS(=O)(=O)CC4)ccc32)c1 [Example 56, 3-isopropyl-N-(4-methyl-1,1-dioxidotetrahydro-2H-thiopyran-4-yl)-1-(3-(methylthio)phenyl)-2-oxo-2,3-dihydro-1H-benzo[d]imidazole-5-carboxamide]",6.44
16,"CNS(=O)(=O)c1cccc(-n2c(=O)n(C(C)C)c3cc(C(=O)NC4(C)CCS(=O)(=O)CC4)ccc32)c1 [Example 57, 3-isopropyl-N-(4-methyl-1,1-dioxidotetrahydro-2H-thiopyran-4-yl)-1-(3-(N-methylsulfamoyl)phenyl)-2-oxo-2,3-dihydro-1H-benzo[d]imidazole-5-carboxamide]",< 5.00
17,"CC(C)n1c(=O)n(-c2cccc(S(C)(=O)=O)c2)c2ccc(C(=O)NC3(C)CCS(=O)(=O)CC3)cc21 [Example 58, 3-isopropyl-N-(4-methyl-1,1-dioxidotetrahydro-2H-thiopyran-4-yl)-1-(3-(methylsulfonyl)phenyl)-2-oxo-2,3-dihydro-1H-benzo[d]imidazole-5-carboxamide]",< 5.00
18,"CC1(NC(=O)c2ccc3c(c2)n(Cc2ccc(F)cc2)c(=O)n3-c2cccc(OC(F)F)c2)CCS(=O)(=O)CC1 [Example 59, 1-(3-(difluoromethoxy)phenyl)-3-(4-fluorobenzyl)-N-(4-methyl-1,1-dioxidotetrahydro-2H-thiopyran-4-yl)-2-oxo-2,3-dihydro-1H-benzo[d]imidazole-5-carboxamide]",7.42
19,"Cn1c(=O)n(-c2cccc(OC(F)F)c2)c2ccc(C(=O)NC3(C)CS(=O)(=O)C3)cc21 [Example 60, 1-(3-(difluoromethoxy)phenyl)-3-methyl-N-(3-methyl-1,1-dioxidothietan-3-yl)-2-oxo-2,3-dihydro-1H-benzo[d]imidazole-5-carboxamide]",5.96
20,"Cc1nnc(NC(=O)c2ccc3c(c2)n(C(C)C)c(=O)n3-c2cccc(OC(F)F)c2)s1 [Example 61, 1-(3-(difluoromethoxy)phenyl)-3-isopropyl-N-(5-methyl-1,3,4-thiadiazol-2-yl)-2-oxo-2,3-dihydro-1H-benzo[d]imidazole-5-carboxamide]",< 5.00
21,"CCn1cc(CNC(=O)c2ccc3c(c2)n(C(C)C)c(=O)n3-c2cccc(OC(F)F)c2)cn1 [Example 63, 1-(3-(difluoromethoxy)phenyl)-N-((1-ethyl-1H-pyrazol-4-yl)methyl)-3-isopropyl-2-oxo-2,3-dihydro-1H-benzo[d]imidazole-5-carboxamide]",< 5.00

# Same assay, conditions: membrane prep of Sf-9 cells expressing hDGAT2; 25 μM diolein, 5 μM 13C oleoyl-CoA; 13C18-triolein by LC/MS/MS; read-out: Human DGAT2 IC50
row,SMILES,pIC50
1,"CC(C)(O)Cn1c(=O)n(-c2cccc(OC(F)F)c2)c2ccc(C(=O)NC3(C)CS(=O)(=O)C3)cc21 [Example 64, 1-(3-(difluoromethoxy)phenyl)-3-(2-hydroxy-2-methylpropyl)-N-(3-methyl-1,1-dioxidothietan-3-yl)-2-oxo-2,3-dihydro-1H-benzo[d]imidazole-5-carboxamide]",7.45
2,"CC(C)n1c(=O)n(-c2cc(OC(F)F)ccc2F)c2ccc(C(=O)NC3(C)CCS(=O)(=O)CC3)cc21 [Example 79, 1-(5-(Difluoromethoxy)-2-fluorophenyl)-3-isopropyl-N-(4-methyl-1,1-dioxidotetrahydro-2H-thiopyran-4-yl)-2-oxo-2,3-dihydro-1H-benzo[d]imidazole-5-carboxamide]",8.68
3,"CC(C)n1c(=O)n(-c2cc(OC(F)F)ccc2F)c2ccc(C(=O)NC3(C)CS(=O)(=O)C3)cc21 [Example 80, 1-(5-(Difluoromethoxy)-2-fluorophenyl)-3-isopropyl-N-(3-methyl-1,1-dioxidothietan-3-yl)-2-oxo-2,3-dihydro-1H-benzo[d]imidazole-5-carboxamide]",8.11
4,"CC(C)n1c(=O)n(-c2cc(OC(F)F)ccc2F)c2ccc(C(=O)N[C@@]3(C)CCS(=O)(=O)C3)cc21 [Example 81, (S)-1-(5-(Difluoromethoxy)-2-fluorophenyl)-3-isopropyl-N-(3-methyl-1,1-dioxidotetrahydrothiophen-3-yl)-2-oxo-2,3-dihydro-1H-benzo[d]imidazole-5-carboxamide]",8.20
